We go through three compounds from patent US7214689B2, “Isoquinoline compounds” (Les Laboratoires Servier, priority 2003, dated 2007).

SMILES strings stand for the structures. Where a name gives a salt, the structure may show the parent alone.

The nature of one test: Forced swimming test. It is filed as in vivo. Particulars: 40 minutes before the test. The method, then: The compounds of the invention are tested in a behavioural model, the forced swimming test.
The apparatus is a Plexiglas cylinder filled with water. The animals are tested individually for a session of 6 minutes. At the beginning of each test, the animal is placed in the centre of the cylinder. The period of immobility is recorded. Each animal is judged to be immobile when it ceases to struggle and remains immobile on the surface of the water only making movements that allow it to keep its head out of the water.
In particular, the compound of Example 9, administered at 2.5 mg/kg per os, causes the duration of immobility to be reduced from 102 seconds (control) to 57 seconds. The compound of Example 3, administered at 25 mg/kg per os, causes the duration of immobilisation to be reduced from 129 seconds (control) to 60 seconds.

Another test concerns the target T1, MT2 receptor (Homo sapiens, UniProt P49286).
T1 sequence (P49286 1-362): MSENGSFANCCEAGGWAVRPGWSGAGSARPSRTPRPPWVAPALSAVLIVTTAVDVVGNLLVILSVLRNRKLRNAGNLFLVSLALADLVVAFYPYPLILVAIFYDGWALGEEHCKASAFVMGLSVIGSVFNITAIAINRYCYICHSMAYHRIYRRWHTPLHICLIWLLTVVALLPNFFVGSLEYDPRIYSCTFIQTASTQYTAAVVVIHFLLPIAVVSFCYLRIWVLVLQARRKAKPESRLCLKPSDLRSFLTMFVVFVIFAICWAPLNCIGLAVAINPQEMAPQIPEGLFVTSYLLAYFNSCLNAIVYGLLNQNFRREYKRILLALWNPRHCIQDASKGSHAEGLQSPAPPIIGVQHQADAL
In words: Binding to melatonin receptor MT2 (2-[125I]-iodomelatonin). Particulars: 2-[125I]-iodomelatonin radioligand, triplicate. The method, then:
(§1) Study of Binding to Melatonin Receptors MT1 and MT2
(§2) The MT1 or MT2 receptor binding experiments are carried out using 2-[^125I]-iodomelatonin as reference radioligand. The radioactivity retained is determined using a liquid scintillation counter.
(§3) Competitive binding experiments are then carried out in triplicate using the various test compounds. A range of different concentrations is tested for each compound. The results enable the binding affinities (Ki) of the compounds tested to be determined.

Another test deals with MT1 receptor (Homo sapiens, UniProt P48039). Kind of test: Binding to melatonin receptor MT1 (2-[125I]-iodomelatonin). Particulars: 2-[125I]-iodomelatonin radioligand, triplicate. How it is done: as §1, §2, §3
Chain of MT1 receptor (P48039 whole entry): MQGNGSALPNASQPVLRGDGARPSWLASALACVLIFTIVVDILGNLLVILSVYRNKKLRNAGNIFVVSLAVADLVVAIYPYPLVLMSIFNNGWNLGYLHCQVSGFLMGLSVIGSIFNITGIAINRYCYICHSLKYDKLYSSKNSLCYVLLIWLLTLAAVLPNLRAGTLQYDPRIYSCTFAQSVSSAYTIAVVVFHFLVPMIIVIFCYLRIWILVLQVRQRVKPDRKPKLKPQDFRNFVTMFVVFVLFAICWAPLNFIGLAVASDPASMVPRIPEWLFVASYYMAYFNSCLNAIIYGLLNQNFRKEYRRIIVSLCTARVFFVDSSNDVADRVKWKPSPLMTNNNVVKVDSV

`COc1ccc2cncc(CCNC(C)=O)c2c1.Cl` [Example 9, N-[2-(6-methoxy-4-isoquinolinyl)ethyl]acetamide hydrochloride] gave a duration of immobility in the test “Forced swimming test” (2.5 mg/kg per os, control 102 seconds) of 57 s. The Ki (usually a measure of affinity in units of concentration, obtained from inhibition or displacement) was 2.16 nM on MT2 receptor and 9.12 nM on MT1 receptor.

Compound `CNC(=O)CCCc1cncc2ccc(OC)cc12` [Example 3, 4-(6-methoxy-4-isoquinolinyl)-N-methylbutanamide] returned a duration of immobilisation in the test “Forced swimming test” (25 mg/kg per os, control 129 seconds) of 60 s. The Ki on MT2 receptor came to 2.6 nM; on MT1 receptor, 3.8 nM.

Consider `CCC(=O)NCCc1cncc2ccc(OC)cc12` [Example 10, N-[2-(6methoxy-4-isoquinolinyl)ethyl]propanamide hydrochloride], for which the inhibitory constant (Ki) on MT2 receptor was found to be 1.14 nM; at MT1 receptor, 4.26 nM.
